Patent US4868208A, “Antifungal agent and method” (Merck & Co., Inc., priority 1988, dated 1989)

Test system: Cryptococcus neoformans
Assay: Agar dilution assay (MIC) against an expanded panel of 84 Cryptococcus neoformans strains
Assay type: cell-based
Details: 84 Cryptococcus neoformans isolates, yeast nitrogen base dextrose agar, 0.008 to 16.0 μg/ml
Protocol: Such activity may be illustrated with test results against Cryptococcus neoformans employing yeast nitrogen base dextrose agar medium. In carrying out the assay, Compound Ia' was solubilized in 10 percent dimethyl sulfoxide (DMSO) supplemented with one drop of Tween 20. Twofold dilutions were made with sterile distilled water/10 percent DMSO to obtain final drug concentrations in the agar dilution assay plates ranging from 0.008 to 16.0 μg/ml against an expanded panel of 84 Cryptococcus neoformans strains.
The minimum inhibitory concentration against the expanded panel of 84 Cryptococcus neoformans isolates may be summarized as follows: […]

COC(=O)C(C)CNC(=O)C(Cc1ccc(OC)c(Cl)c1)NC(=O)C=CCC(OC(=O)C(O)CC(C)C)C(C)C1OC1c1ccccc1 (stereo not drawn) [Compound Ia', 5-[[2-[[2-(methoxycarbonyl)propyl]amino]-1-[(3-chloro-4-methoxyphenyl)methyl]-2-oxoethyl]amino]-5-oxo-1-[1-(3-phenyloxiranyl)ethyl]-3-pentenyl 2-hydroxy-4-methylpentanoate]
MIC50 (concentration at which 50% of the strains were inhibited): 8.0 mg/L | MIC90 (concentration at which 90% of the strains were inhibited): 8.0 mg/L | G-MIC (geometric means of MIC) (10 percent DMSO/Tween 20): > 6.11 mg/L
